The supplement of paper PMC10307832

What was measured:
Assay in all cases: relative viability (nuclei count vs DMSO), 5 days (fraction); higher = more cells survive
VX-11e + Palbociclib = compound: CC1=CN=C(N=C1C2=CNC(=C2)C(=O)N[C@H](CO)C3=CC(=CC=C3)Cl)NC4=C(C=C(C=C4)F)Cl [VX-11e] + CC(=O)c1c(C)c2cnc(Nc3ccc(N4CCNCC4)cn3)nc2n(C2CCCC2)c1=O [Palbociclib] (partner 0.5 µM)
In short: (§1)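 Five library-drug doses in √10 steps were combined with a fixed anchor-drug dose, or a single drug was given alone, by pin tool to lung cancer cell lines in 1536-well plates the day after seeding. Nuclei were stained and counted after 5 days. Relative viability is the nuclei count in treated wells over that in vehicle wells, taken as the median of duplicate plates.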

VX-11e + Bortezomib = compound: CC1=CN=C(N=C1C2=CNC(=C2)C(=O)N[C@H](CO)C3=CC(=CC=C3)Cl)NC4=C(C=C(C=C4)F)Cl [VX-11e] + CC(C)C[C@H](NC(=O)[C@H](Cc1ccccc1)NC(=O)c1cnccn1)B(O)O [Bortezomib] (partner 0.002 µM)
In short: as §1

VX-11e + Alpelisib = compound: CC1=CN=C(N=C1C2=CNC(=C2)C(=O)N[C@H](CO)C3=CC(=CC=C3)Cl)NC4=C(C=C(C=C4)F)Cl [VX-11e] + Cc1nc(NC(=O)N2CCC[C@H]2C(N)=O)sc1-c1ccnc(C(C)(C)C(F)(F)F)c1 [Alpelisib] (partner 2 µM)
In short: as §1

VX-11e + Dasatinib = compound: CC1=CN=C(N=C1C2=CNC(=C2)C(=O)N[C@H](CO)C3=CC(=CC=C3)Cl)NC4=C(C=C(C=C4)F)Cl [VX-11e] + Cc1nc(Nc2ncc(C(=O)Nc3c(C)cccc3Cl)s2)cc(N2CCN(CCO)CC2)n1 [Dasatinib] (partner 0.075 µM)
In short: as §1

| Cell Line | relative viability (VX-11e + Palbociclib; first compound 0.04 µM) | relative viability (VX-11e + Palbociclib; first compound 0.1265 µM) | relative viability (VX-11e + Palbociclib; first compound 0.4 µM) | relative viability (VX-11e + Palbociclib; first compound 1.265 µM) | relative viability (VX-11e + Palbociclib; first compound 4 µM) | relative viability (VX-11e + Bortezomib; first compound 0.04 µM) | relative viability (VX-11e + Bortezomib; first compound 0.1265 µM) | relative viability (VX-11e + Bortezomib; first compound 0.4 µM) | relative viability (VX-11e + Bortezomib; first compound 1.265 µM) | relative viability (VX-11e + Bortezomib; first compound 4 µM) | relative viability (VX-11e + Alpelisib; first compound 0.04 µM) | relative viability (VX-11e + Alpelisib; first compound 0.1265 µM) | relative viability (VX-11e + Alpelisib; first compound 0.4 µM) | relative viability (VX-11e + Alpelisib; first compound 1.265 µM) | relative viability (VX-11e + Alpelisib; first compound 4 µM) | relative viability (VX-11e + Dasatinib; first compound 0.04 µM) | relative viability (VX-11e + Dasatinib; first compound 0.1265 µM) | relative viability (VX-11e + Dasatinib; first compound 0.4 µM) | relative viability (VX-11e + Dasatinib; first compound 1.265 µM) | relative viability (VX-11e + Dasatinib; first compound 4 µM) |
| --- | --- | --- | --- | --- | --- | --- | --- | --- | --- | --- | --- | --- | --- | --- | --- | --- | --- | --- | --- | --- |
| NCI-H1734 | 0.342 | 0.382 | 0.355 | 0.327 | 0.224 | 0.965 | 0.826 | 0.726 | 0.513 | 0.365 | 0.689 | 0.691 | 0.648 | 0.674 | 0.41 | 0.418 | 0.396 | 0.536 | 0.415 | 0.256 |
| COR-L 105 | 0.425 | 0.414 | 0.396 | 0.386 | 0.363 | 0.814 | 0.826 | 0.6 | 0.338 | 0.226 | 0.929 | 0.973 | 0.799 | 0.329 | 0.357 | 0.316 | 0.344 | 0.33 | 0.198 | 0.229 |
| RERF-LC-KJ | 1.11 | 1.02 | 0.981 | 0.952 | 0.908 | 1 | 1.04 |  | 1.03 | 0.894 | 1.47 | 0.739 |  | 0.829 | 0.551 | 0.872 | 0.758 | 0.867 | 0.71 | 0.59 |
| NCI-H2228 | 0.832 | 0.731 | 0.165 | 0.528 | 0.199 | 1.18 | 1.18 | 0.221 | 0.681 | 0.284 | 0.631 | 0.922 | 0.715 | 0.548 | 0.232 | 0.591 | 0.578 |  | 0.351 | 0.188 |
| NCI-H647 | 0.37 | 0.346 | 0.372 | 0.256 | 0.217 | 0.892 | 0.964 | 0.584 | 0.491 | 0.477 | 1.32 | 1.19 | 1.05 | 0.551 | 0.282 | 0.23 | 0.215 | 0.0848 | 0.123 | 0.0992 |
| LC-2-ad | 0.48 | 0.42 | 0.54 | 0.46 | 0.409 | 1.13 | 0.962 | 0.894 | 0.403 | 0.841 | 0.913 | 0.867 | 0.778 | 0.714 | 0.585 | 0.48 | 0.402 | 0.326 | 0.289 | 0.324 |
| EMC-BAC-2 | 0.563 | 0.459 | 0.533 | 0.553 | 0.432 | 1.04 | 1.01 | 1.14 | 1.02 | 0.858 | 0.731 | 0.662 | 0.687 | 0.618 | 0.534 | 0.303 | 0.291 | 0.437 | 0.509 | 0.407 |
| NCI-H1792 | 0.684 | 0.586 | 0.645 | 0.541 | 0.319 | 1.01 | 0.912 | 0.94 | 0.876 | 0.686 | 0.799 | 0.631 | 0.649 | 0.628 | 0.202 | 0.894 | 0.679 | 0.572 | 0.729 | 0.326 |
| NCI-H2405 | 0.579 | 0.506 | 0.385 | 0.513 | 0.328 | 1.04 | 0.953 | 0.988 | 0.952 | 0.601 | 0.857 | 0.726 |  | 0.602 | 0.209 | 0.204 | 0.186 | 0.15 | 0.151 | 0.128 |
| NCI-H23 | 0.453 | 0.416 | 0.425 | 0.382 | 0.203 | 0.911 | 0.81 | 0.25 | 0.935 | 0.367 | 0.575 | 0.53 | 0.435 | 0.384 | 0.242 | 0.552 | 0.711 |  | 0.225 | 0.221 |
| LXF-289 | 0.633 | 0.61 |  | 0.618 | 0.473 | 1.07 | 0.96 | 0.764 | 0.734 | 0.665 | 1.05 | 0.962 | 0.961 | 0.942 | 0.695 | 0.29 | 0.199 | 0.249 | 0.336 | 0.172 |
| NCI-H1437 | 0.323 | 0.24 | 0.321 | 0.224 | 0.222 | 0.597 | 0.316 | 0.306 | 0.312 | 0.202 | 0.996 | 0.869 | 0.891 | 0.642 | 0.247 | 0.292 | 0.329 | 0.161 | 0.218 | 0.16 |
| NCI-H661 | 0.375 | 0.406 | 0.348 | 0.402 | 0.379 | 0.791 | 0.899 | 0.819 | 0.683 | 0.583 | 0.403 | 0.831 | 0.606 | 0.586 | 0.511 | 0.863 | 0.799 | 0.784 | 0.684 | 0.352 |
| PC-3 [JPC-3] | 0.565 | 0.558 | 0.519 | 0.624 | 0.546 | 0.91 | 0.828 | 0.803 | 0.993 | 0.719 | 1.03 | 1.02 | 1 | 1.15 | 0.827 | 0.904 | 0.903 | 0.886 | 1.16 | 0.883 |
| PC-14 | 0.551 | 0.497 | 0.374 | 0.252 | 0.19 | 0.967 | 0.798 | 0.818 | 0.869 | 0.527 | 1.13 | 0.916 | 0.676 | 0.918 | 0.459 | 0.359 | 0.237 | 0.168 | 0.319 | 0.109 |
| NCI-H838 | 0.225 | 0.187 | 0.18 | 0.214 | 0.203 | 0.985 | 0.703 | 0.608 | 0.527 | 0.515 | 1.06 | 0.989 | 0.952 | 1.02 | 0.824 | 0.255 | 0.326 | 0.222 | 0.247 | 0.267 |
| 201T | 0.206 | 0.337 | 0.361 | 0.353 | 0.348 | 1.05 | 1.11 | 1.12 | 1.02 | 1.03 | 1.01 | 0.989 | 0.995 | 1.08 | 0.92 | 0.58 | 0.536 | 0.486 | 0.502 | 0.495 |
| SK-LU-1 | 0.399 | 0.355 | 0.325 | 0.365 | 0.236 | 1.01 | 0.718 |  | 0.895 | 0.452 | 1.26 | 1.1 | 1.05 | 0.592 | 0.263 | 0.202 | 0.184 |  | 0.147 | 0.108 |
| NCI-H650 | 0.358 | 0.487 | 0.519 | 0.329 | 0.491 |  | 0.692 | 1.23 |  | 0.87 |  | 0.961 | 1.14 |  | 0.876 | 0.418 | 0.467 | 0.425 | 0.414 | 0.398 |
| NCI-H1355 | 0.432 | 0.382 | 0.382 | 0.319 | 0.216 | 1.01 | 1.17 | 0.614 | 1.11 | 0.763 | 0.725 | 0.687 | 0.88 | 0.572 | 0.302 | 0.523 | 0.669 | 0.334 | 0.43 | 0.321 |
| SW 1573 |  | 0.342 | 0.351 | 0.259 | 0.15 | 0.812 | 0.854 | 1.02 | 0.826 | 0.64 | 0.791 | 0.825 | 0.767 | 0.59 | 0.39 | 0.656 | 0.641 | 0.718 | 0.424 | 0.28 |
| HCC-827 | 0.533 | 0.46 | 0.461 | 0.541 | 0.301 | 1.11 | 1.1 | 1.09 | 1.2 | 1.02 | 1.02 | 1.06 | 0.983 | 1.16 | 0.599 | 0.297 | 0.292 | 0.257 | 0.406 | 0.246 |
| NCI-H441 | 0.175 | 0.232 |  | 0.157 | 0.165 | 0.54 | 0.436 |  | 0.963 | 0.432 | 0.804 | 0.709 |  | 0.977 | 0.633 | 0.685 | 0.814 |  | 0.502 | 0.318 |
| NCI-H2126 | 0.331 | 0.379 | 0.359 | 0.353 | 0.318 |  | 1.06 | 1.01 | 1.14 | 1.02 |  | 0.755 | 0.747 | 0.68 | 0.578 | 0.52 | 0.635 |  | 0.597 | 0.401 |
| EPLC-272H | 0.339 | 0.293 |  | 0.295 | 0.235 | 0.94 | 0.799 | 0.841 | 0.839 | 0.665 | 0.742 | 0.702 | 0.823 | 0.835 | 0.512 | 0.328 | 0.269 |  | 0.334 | 0.2 |
| NCI-H1651 | 0.526 | 0.493 | 0.492 | 0.449 | 0.498 | 0.946 | 0.879 | 0.921 | 0.922 | 0.871 | 0.955 | 0.882 | 1 | 0.735 | 0.705 | 0.43 | 0.378 | 0.368 | 0.328 | 0.323 |
| NCI-H727 | 0.589 | 0.358 | 0.602 | 0.559 | 0.412 | 0.686 | 0.68 | 0.519 | 0.513 | 0.29 | 0.432 | 0.497 | 0.438 | 0.333 | 0.254 | 0.355 | 0.279 | 0.337 | 0.415 | 0.258 |
| LOU-NH91 | 0.533 | 0.509 |  | 0.487 | 0.521 | 0.494 | 0.502 |  | 0.486 | 0.457 | 0.692 | 0.689 |  | 0.691 | 0.538 | 0.534 | 0.514 | 0.372 | 0.489 | 0.471 |
